The results in this text go back to patent publication US6479435B1, “Diaryl ethers and processes for their preparation and herbicidal and desiccant compositions containing them” (ISK Americas Incorporated, priority 1997, dated 2002).

Common to all, as to assay: Post-emerge greenhouse herbicide test, phytotoxicity rating
Common to all, as to assay type: in vivo

For experiment [1], the system named is Johnsongrass (Sorghum halepense, SORHA). The settings on record: Sorghum halepense, post-emergence, 336 h, 14 days after application, scale 0-100; for pest or weed control at 63 g/ha: rate 63 g ai/ha; for pest or weed control at 500 g/ha: rate 500 g ai/ha. The essentials:
(§1)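 Scores use a 0 (no damage) to 100 (complete kill) scale, taken 14 days after a foliar spray. Acetone solutions with 0.25% v/v non-ionic surfactant were applied by track sprayer at 187 l/ha and 63-1000 g ai/ha to bottom-watered 2-3 leaf plants.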

For experiment [2], the system named is barnyardgrass (Echinochloa crusgalli, ECHCG). The following applies: Echinochloa crus-galli, post-emergence, 336 h, 14 days after application, scale 0-100; for pest or weed control at 63 g/ha: rate 63 g ai/ha; for pest or weed control at 500 g/ha: rate 500 g ai/ha. Summed up: as §1
In experiment [3] the test system is velvetleaf (Abutilon theophrasti, ABUTH). The following applies: Abutilon theophrasti, post-emergence, 336 h, 14 days after application, scale 0-100; for pest or weed control at 63 g/ha: rate 63 g ai/ha; for pest or weed control at 500 g/ha: rate 500 g ai/ha. Summed up: as §1

As usually defined, the pest or weed control is the degree to which the test organism was suppressed or injured, in per cent. A lower pest or weed control goes with a weak effect. `Nn1c(C(F)(F)F)cc(=O)n(-c2cc(Oc3ccccc3[N+](=O)[O-])c(Cl)cc2F)c1=O` [Compound 9-21, 1-amino-3-[4-chloro-2-fluoro-5-(2-nitrophenoxy)phenyl]-6-trifluoromethyl-1,2,3,4-tetrahydropyrimidine-2,4-dione]: the pest or weed control at 63 g/ha was 60% in experiment [1], 70% in experiment [2] and 100% in experiment [3]. Also, the pest or weed control at 500 g/ha in experiment [1] amounted to 90%; in experiment [2], 100%; in experiment [3] it was 100%.
As for `N#Cc1cccnc1Oc1cc(-n2c(=O)cc(C(F)(F)F)n(N)c2=O)c(F)cc1Cl` [Compound 9-9, 1-Amino-3-[4-chloro-2-fluoro-5-(3-cyano-2-pyridyloxy)phenyl]-6-trifluoromethyl-1,2,3,4-tetrahydropyrimidine-2,4-dione], the pest or weed control at 63 g/ha in experiment [1] stood at 40%; in experiment [2], 10%; in experiment [3], 100%. The pest or weed control at 500 g/ha in experiment [1], in experiment [2] and in experiment [3] was 100% in each case.
`Nn1c(C(F)(F)F)cc(=O)n(-c2cc(Oc3cccc(Cl)n3)c(Cl)cc2F)c1=O` [Compound 9-5, 1-Amino-3-[4-chloro-2-fluoro-5-(6-chloro-2-pyridyloxy)phenyl]-6-trifluoromethyl-1,2,3,4-tetrahydropyrimidine-2,4-dione]: the values for the pest or weed control at 63 g/ha in experiment [1], in experiment [2] and in experiment [3] were 50%, 20% and 90%, respectively. Besides, the pest or weed control at 500 g/ha in experiment [1], in experiment [2] and in experiment [3] was 100% each time.
Take `Nn1c(C(F)(F)F)cc(=O)n(-c2cc(Oc3cc(C(F)(F)F)ccn3)c(Cl)cc2F)c1=O` [Compound 9-8, 1-Amino-3-[4-chloro-2-fluoro-5-(4-trifluoromethyl-2-pyridyloxy)phenyl]-6-trifluoromethyl-1,2,3,4-tetrahydropyrimidine-2,4-dione]: the pest or weed control at 63 g/ha in experiment [1] stood at 30%; in experiment [2], 10%; in experiment [3] it was 100%. Besides, the values for the pest or weed control at 500 g/ha in experiment [1], in experiment [2] and in experiment [3] were 90%, 95% and 100%, respectively.
Turning to `Nn1c(C(F)(F)F)cc(=O)n(-c2cc(Oc3ncccn3)c(Cl)cc2F)c1=O` [Compound 9-16, 1-Amino-3-[4-chloro-2-fluoro-5-(2-pyrimidyloxy)phenyl]-6-trifluoromethyl-1,2,3,4-tetrahydropyrimidine-2,4-dione], the pest or weed control at 63 g/ha in experiment [1], in experiment [2] and in experiment [3] was 100% throughout. Also, the pest or weed control at 500 g/ha in experiment [1], in experiment [2] and in experiment [3] was 100% each time.
Consider `Nn1c(C(F)(F)F)cc(=O)n(-c2cc(Oc3ccc([N+](=O)[O-])cc3C(F)(F)F)c(Cl)cc2F)c1=O` [Compound 9-22, 1-Amino-3-[4-chloro-2-fluoro-5-(4-nitro-2-trifluoromethylphenoxy)phenyl]-6-trifluoromethyl-1,2,3,4-tetrahydropyrimidine-2,4-dione], for which the values for the pest or weed control at 63 g/ha in experiment [1], in experiment [2] and in experiment [3] were 0%, 20% and 100%, respectively. In addition, the pest or weed control at 500 g/ha was found to be 80% in experiment [1], 90% in experiment [2] and 100% in experiment [3].
For the molecule `Nn1c(C(F)(F)F)cc(=O)n(-c2cc(Oc3cc([N+](=O)[O-])cc(C(F)(F)F)c3)c(Cl)cc2F)c1=O` [Compound 9-23, 1-Amino-3-[4-chloro-2-fluoro-5-(3-nitro-5-trifluoromethylphenoxy)phenyl]-6-trifluoromethyl-1,2,3,4-tetrahydropyrimidine-2,4-dione], the pest or weed control at 63 g/ha worked out at 0% in experiment [1], 0% in experiment [2] and 45% in experiment [3]. The figures for the pest or weed control at 500 g/ha in experiment [1], in experiment [2] and in experiment [3] were 30%, 50% and 90%, respectively.
As for `Nn1c(C(F)(F)F)cc(=O)n(-c2cc(Oc3nc(F)c(F)cc3F)c(Cl)cc2F)c1=O` [Compound 9-6, 1-Amino-3-[4-chloro-2-fluoro-5-(3,5,6-trifluoro-2-pyridyloxy)phenyl]-6-trifluoromethyl-1,2,3,4-tetrahydropyrimidine-2,4-dione], the pest or weed control at 63 g/ha in experiment [1] came out at 100%; in experiment [2], 90%; in experiment [3] it was 100%. In addition, the pest or weed control at 500 g/ha in experiment [1], in experiment [2] and in experiment [3] was 100% throughout.
As to `Cc1nsc(Oc2cc(-n3c(=O)cc(C(F)(F)F)n(N)c3=O)c(F)cc2Cl)c1[N+](=O)[O-]` [Compound 9-14, 1-Amino-3-[4-Chloro-2-fluoro-5-(3-methyl-4-nitroisothiazol-5-yloxy)phenyl]-6-trifluoromethyl-1,2,3,4-tetrahydropyrimidine-2,4-dione], the pest or weed control at 63 g/ha in experiment [1] worked out at 40%; in experiment [2], 10%; in experiment [3], 100%. Further, the pest or weed control at 500 g/ha in experiment [1], in experiment [2] and in experiment [3] was 100% throughout.
With `Nn1c(C(F)(F)F)cc(=O)n(-c2cc(Oc3ccccc3)c(Cl)cc2F)c1=O` [Compound 9-26, 1-Amino-3-[4-chloro-2-fluoro-5-phenoxyphenyl]-6-trifluoromethyl-1,2,3,4-tetrahydropyrimidine-2,4-dione], the pest or weed control at 63 g/ha in experiment [1] is 90%; in experiment [2], 80%; in experiment [3] it was 100%. Besides, the pest or weed control at 500 g/ha in experiment [1], in experiment [2] and in experiment [3] was 100% each time.
Take `Nn1c(C(F)(F)F)cc(=O)n(-c2cc(Oc3ccc(Br)cn3)c(Cl)cc2F)c1=O` [Compound 9-2, 1-Amino-3-[4-chloro-2-fluoro-5-(5-bromo-2-pyridyloxy)phenyl]-6-trifluoromethyl-1,2,3,4-tetrahydropyrimidine-2,4-dione]: the figures for the pest or weed control at 63 g/ha in experiment [1], in experiment [2] and in experiment [3] were 10%, 10% and 100%, respectively. In addition, the pest or weed control at 500 g/ha worked out at 70% in experiment [1], 80% in experiment [2] and 100% in experiment [3].
For `Nn1c(C(F)(F)F)cc(=O)n(-c2cc(Oc3ccccn3)c(Cl)cc2F)c1=O` [Compound 9-15, 1-amino-3-[4-chloro-2-fluoro-5-(2pyridyloxy)phenyl]-6-trifluoromethyl-1,2,3,4-tetrahydropyrimidine-2,4-dione], the pest or weed control at 125 g/ha was 95% in experiment [1] (rate 125 g ai/ha), 90% in experiment [2] (rate 125 g ai/ha) and 100% in experiment [3] (rate 125 g ai/ha). The figures for the pest or weed control at 500 g/ha in experiment [1], in experiment [2] and in experiment [3] were 100%, 99% and 100%, respectively.
